Experimental data from patent US7033829B2, “Method to inhibit cell growth using oligonucleotides” (Trustees of Boston University, priority 2000, dated 2006).
Oligonucleotides are written 5' to 3', each unit as a sugar letter and its base; * is a phosphorothioate linkage, no mark a phosphodiester; rarer units and linkages stand in square brackets, end groups in braces. Plain capitals give the bases only. d = 2'-deoxy (DNA); {P} = phosphate

Experiments:
[1] = test system: serine 15-phosphorylated p53, E2F1 (cells lacking functional ATM); experiment: Western blot of p53 serine 15 phosphorylation and E2F1 in AT fibroblasts; format: cell-based, human; conditions: 40 μM; 48 hours
Procedure: Because the serine 15 site on p53 is known to be phosphorylated in an ATM-dependent manner after exposure to ionizing radiation (IR), we wished to examine the role of ATM in E2F1 induction and p53 serine 15 phosphorylation in response to the 11 mer-1. Fibroblasts from a patient with ataxia telangiectasia (AT) known to lack functional ATM protein, and age-matched normal control fibroblasts (N) were treated with either diluent, 40 μM 11mer-1, sham irradiation or IR (10 Gy). Cells were collected 3 hours (sham or IR) or 48 hours (diluent, 11mer-1) for western blot analysis to detect serine 15-phosphorylated p53 and total p53. In normal fibroblasts, the 11mer-1 induced a 10–15 fold increase in the level p53 phosphorylation on serine 15 compared to diluent-treated controls.

[2] = test system: LacZ reporter plasmid; experiment: UV-induced mutation frequency in LacZ transgenic mice; format: in vivo
Text: Transgenic mice carrying multiple genomic copies of a LacZ reporter plasmid were used. One hundred μM pTpT in polypropyleneglycol was applied to one ear and vehicle alone to the other ear, daily for four days. On the fifth day, both ears were exposed to 100 mJ/cm^2 UVB light. This procedure was repeated weekly for 3, 5 or 7 weeks (3 mice/group). One week after the final irradiation, LacZ plasmids were harvested from the ear epidermis. Using methods well known in the art, the plasmids were recovered from genomic DNA by restriction enzyme digestion and specific binding to the LacI protein. Mutant LacZ plasmids were positively selected by transfection into bacteria and growth on selective medium and the mutation frequency was determined.

[3] = test system: basal keratinocytes (epidermal cell proliferation); experiment: Epidermal labeling index after topical application; format: in vivo, Guinea pigs; conditions: 100 μM topical, three days, mean ± SD
Procedure: Guinea pigs received one or two daily topical applications of 100 μM pTpT, or vehicle alone as control, for three days. On the fourth day, punch biopsies were obtained and maintained for 7 or 8 hours in primary keratinocyte medium supplemented with 10 μCi/ml ^3H-thymidine (specific activity 9.0 Ci/m mole, NEN). Proliferating cells are expected to incorporate the ^3H-thymidine into newly synthesized DNA. Tissues were then rinsed with cold medium and fixed in 10% phosphate buffered formalin. After a series of dehydration steps, tissues were embedded in paraffin. 6 μm sections were cut and mounted onto glass slides, dipped in NTB-2 Nuclear Track emulsion and kept in the dark at 4° C. for 7 days. Sections were developed in Kodak D-19 developer and stained with hematoxylin and eosin. Labeling index, a measure of DNA replication and therefore cell proliferation, was measured by calculating the percentage of labeled nuclei among 100 basal keratinocytes.

[4] = test system: BP DNA adducts (CAT reporter plasmid) in H1299 cells; experiment: Repair of BP-damaged CAT reporter plasmid in H1299 cells; format: cell-based, human
Procedure: Preconfluent cultures of H1299 cells were transfected with an expression vector containing the wild type human p53 cDNA under the control of the human cytomegalovirus promoter/enhancer (Dr. Bert Vogelstein, Johns Hopkins Oncology Center). Control transfections were performed using the same vector lacking the p53 cDNA. Transfections were carried out as described previously.
The pCAT vector (Promega) was treated with benzo[a]pyrene-7,8-diol-9,10-epoxide (BP) as described (Athas et al. Cancer Res 1991) to produce less damaged and more damaged plasmids, previously shown to be instructive in studies examining different repair capacities in human cells. Based on the incorporation of ^3H-BPDE into the DNA, the less damaged plasmid contained 25 adducts per 5 kb plasmid and the more damaged plasmid contained 50 adducts. This non-replicating vector contains the chloramphenicol acetyltransferase gene under control of SV40 promoter and enhancer sequences. Human keratinocytes and p53-transfected H1299 cells were pre-treated with either 100 μM pTpT or an equal volume of diluent (DMEM) alone for 48 hours, then transfected with either BP-modified pCAT-control vector (0.5 μg/ml) or unmodified vector (0.5 μg/ml) together with PSV-β-galactosidase control vector (0.5 μg/ml). Cells were collected in a reporter lysis buffer (Promega) 24 hours after transfection. CAT enzyme activity was determined using the liquid scintillation counting protocol and components of the assay system kit (Promega). ^14C-labeled chloramphenicol[50–60 mCi(1.85–2.22 GBq)/mmol] was purchased from New England Nuclear (Boston, Mass.). CAT activity was normalized with β-galactosidase activity.
To confirm that pTpT enhances repair of BP-DNA adducts, at least in part, through p53 activation, p53-null H1299 cells were transfected with the p53 expression vector, and p53 protein expression was then confirmed by western blot analysis 48 hours after transfection.

[5] = test system: BP DNA adducts (CAT reporter plasmid) in human keratinocytes; experiment: Repair of BP-damaged CAT reporter plasmid in keratinocytes; format: cell-based; conditions: 100 μM 48 hours; ~25 or ~50 adducts/plasmid
Procedure: The pCAT vector (Promega) was treated with benzo[a]pyrene-7,8-diol-9,10-epoxide (BP) as described (Athas et al. Cancer Res 1991) to produce less damaged and more damaged plasmids, previously shown to be instructive in studies examining different repair capacities in human cells. Based on the incorporation of ^3H-BPDE into the DNA, the less damaged plasmid contained 25 adducts per 5 kb plasmid and the more damaged plasmid contained 50 adducts. This non-replicating vector contains the chloramphenicol acetyltransferase gene under control of SV40 promoter and enhancer sequences. […] CAT enzyme activity was determined using the liquid scintillation counting protocol and components of the assay system kit (Promega). ^14C-labeled chloramphenicol[50–60 mCi(1.85–2.22 GBq)/mmol] was purchased from New England Nuclear (Boston, Mass.). […]
To measure the repair of BP DNA adducts, non-replicating BP-damaged reporter plasmid system containing the bacterial chloramphenicol acetyltransferase (CAT) gene was used as described in Example 8. With first passage human keratinocytes, the transfection efficiency, as measured by the cotransfected β-galactosidase expression vector, was 40–70%.

[6] = test system: contact hypersensitivity; experiment: Contact hypersensitivity to DNFB (ear swelling); format: in vivo, C57B16 mice; conditions: 30 μl of 100 μM BID×5d topical to abdominal skin before sensitization
Procedure: C57B16 mice were subjected to the following treatment prior to sensitization with the allergen DNFB, by topical administration to abdominal skin; no pretreatment, UVB irradiation (200 J/m^2/dx4d), pTpT, pApA, or vehicle alone (30 μl of 100 μM BID×5d).

Substance	increase in p53 phosphorylation on serine 15 [1]	mutation frequency ([2]; 100 μM topical, weekly UVB, after 3 weeks (diluent 293))	lower mutation frequency than diluent treated skin ([2]; after 3, 5, and 7 weeks)	mutation frequency ([2]; after 5 weeks (diluent 216))	mutation frequency ([2]; after 7 weeks (diluent 322))	Labeling Index (percentage of labeled nuclei among 100 basal keratinocytes) ([3]; 1 daily application)	Labeling Index (percentage of labeled nuclei among 100 basal keratinocytes) ([3]; 2 daily applications)	plasmid repair efficiency versus diluent pre-treated cells ([4]; p53+ H1299 cells, high level of BP damage)	plasmid repaired more efficiently than in diluent pre-treated cells ([4]; p53+ H1299 cells, low level of BP damage)	repair capacity versus diluent ([4]; p53- H1299 cells)	CAT expression relative to undamaged control vector, compared to diluent [5]	ear swelling responses to DNFB challenge [6]
pGTTAGGGTTAG (DNA {P}-dGdTdTdAdGdGdGdTdTdAdG) [SEQ ID NO: 5]	< 50%	–	–	–	–	–	–	–	–	–	–	–
thymidine dinucleotide [pTpT]	–	200	20–30%	155	261	2 ± 0	1.5 ± 0.7	more than three times as efficiently	80%±50%	the repair capacity was the same	approximate doubling of CAT expression	0.9±0.3
